Data taken from patent EP0411334B1, “Antiherpes pentapeptide derivatives having a substituted aspartic acid side chain” (BIO-MEGA/BOEHRINGER INGELHEIM RESEARCH INC., priority 1989, dated 1991).
Where a SMILES comes first, the peptide text is derived from it. [ ]: non-standard residue; d: D form. The star is where a group is joined. Dihydrocaffeoyl = O=C(CCc1ccc(O)c(O)c1)*; Benzoyl(2-Ph) = O=C(c1ccccc1-c1ccccc1)*; Desaminotyrosyl = O=C(CCc1ccc(O)cc1)*; Hydrocinnamoyl = O=C(CCc1ccccc1)*; N(Me)CH2CH2Ph = CN(CCc1ccccc1)*; Pentanoyl(4-Me) = CC(C)CCC(=O)*; O(2S-octyl) = CCCCCC[C@H](C)O*; NHPhenethyl = c1ccc(CCN*)cc1; NMeV = CN[C@H](C(=O)O)C(C)C; Morpholide = C1CN(*)CCO1; Pyrrolidide = C1CCN(*)C1; NiPr2 = CC(C)N(C(C)C)*; X1 = CCCCCC[C@@H](C)O*; X3 = c1ccc(CCCO*)cc1; X8 = CN(CCc1ccccn1)*; Bz = O=C(c1ccccc1)*; NHPh = c1ccc(N*)cc1; N(Me)OMe = CON(C)*; NEt2 = CCN(CC)*

biological target: HSV-1 ribonucleotide reductase (Human herpesvirus 1, UniProt P08543); experiment: biochemical
Sequence (P08543 whole entry): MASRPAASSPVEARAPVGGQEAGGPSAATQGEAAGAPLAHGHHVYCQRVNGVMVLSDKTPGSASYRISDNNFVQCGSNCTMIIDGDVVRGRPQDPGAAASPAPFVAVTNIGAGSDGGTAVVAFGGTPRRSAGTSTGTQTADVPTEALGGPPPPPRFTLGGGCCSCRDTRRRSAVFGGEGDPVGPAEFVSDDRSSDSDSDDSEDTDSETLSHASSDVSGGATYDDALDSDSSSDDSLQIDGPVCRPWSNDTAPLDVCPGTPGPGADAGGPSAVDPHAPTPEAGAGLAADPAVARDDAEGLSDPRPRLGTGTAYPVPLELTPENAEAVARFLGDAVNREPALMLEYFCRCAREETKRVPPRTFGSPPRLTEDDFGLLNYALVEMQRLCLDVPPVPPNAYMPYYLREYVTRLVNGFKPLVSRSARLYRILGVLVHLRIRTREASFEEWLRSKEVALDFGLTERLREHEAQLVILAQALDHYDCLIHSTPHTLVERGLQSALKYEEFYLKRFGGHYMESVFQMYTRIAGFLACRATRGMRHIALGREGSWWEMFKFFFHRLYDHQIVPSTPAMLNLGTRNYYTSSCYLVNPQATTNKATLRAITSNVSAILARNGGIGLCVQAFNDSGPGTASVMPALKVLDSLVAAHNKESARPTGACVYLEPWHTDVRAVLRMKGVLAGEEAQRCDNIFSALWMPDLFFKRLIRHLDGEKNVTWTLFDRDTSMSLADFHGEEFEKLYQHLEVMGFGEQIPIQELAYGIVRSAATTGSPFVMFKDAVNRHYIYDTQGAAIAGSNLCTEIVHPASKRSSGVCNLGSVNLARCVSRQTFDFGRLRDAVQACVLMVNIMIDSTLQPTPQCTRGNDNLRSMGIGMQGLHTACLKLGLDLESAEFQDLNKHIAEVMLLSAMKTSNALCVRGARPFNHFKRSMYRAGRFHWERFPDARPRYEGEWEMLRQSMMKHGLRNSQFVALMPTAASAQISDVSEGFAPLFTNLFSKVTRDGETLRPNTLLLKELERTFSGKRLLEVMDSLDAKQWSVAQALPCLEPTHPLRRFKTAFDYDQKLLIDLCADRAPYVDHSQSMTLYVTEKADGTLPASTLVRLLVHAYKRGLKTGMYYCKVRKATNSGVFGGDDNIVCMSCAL
Excerpt: Inhibition of Herpes Simplex Virus (HSV, type 1) Ribonucleotide Reductase
• a) Preparation of Enzyme HSV-1 ribonucleotide reductase (partially purified) was obtained from quiescent BHK-21/C13 cells infected with strain F HSV-1 virus at 10 plaque forming units/cell as described by E.A. Cohen et al., J. Gen. […] The number of units of the enzyme preparation used in each assay was constant, based on the specific activity of the enzyme preparation.

CCCCCC[C@H](C)OC(=O)C[C@H](NC(=O)[C@@H](NC(=O)[C@H](C(C)C)N(C)C(=O)CCc1ccccc1)[C@@H](C)CC)C(=O)N[C@@H](CC(=O)O)C(=O)N[C@@H](CC(C)C)C(=O)O [Entry 1] (Hydrocinnamoyl-[NMeV]ID(O(2S-octyl))DL-OH) was tested. Which IC50 did it give?
The IC50 was 700 nM.

Which IC50 does the source give for CCCCCC[C@@H](C)OC(=O)C[C@H](NC(=O)[C@@H](NC(=O)[C@H](C(C)C)N(C)C(=O)CCc1ccccc1)[C@@H](C)CC)C(=O)N[C@@H](CC(=O)O)C(=O)N[C@@H](CC(C)C)C(=O)O [Entry 2] (Hydrocinnamoyl-[NMeV]ID(X1)DL-OH) here?
Its IC50 is 700 nM.

With CC[C@H](C)[C@H](NC(=O)[C@H](C(C)C)N(C)C(=O)CCc1ccccc1)C(=O)N[C@@H](CC(=O)N(C)C)C(=O)N[C@@H](CC(=O)O)C(=O)N[C@@H](CC(C)C)C(=O)O [Entry 3] (Hydrocinnamoyl-[NMeV]ID(NMe2)DL-OH) as the compound, how does the IC50 read?
Its IC50 is 190 nM.

Which IC50 does the source give for CC[C@H](C)[C@H](NC(=O)[C@H](C(C)C)N(C)C(=O)CCc1ccccc1)C(=O)N[C@@H](CC(=O)N(CC)CC)C(=O)N[C@@H](CC(=O)O)C(=O)N[C@@H](CC(C)C)C(=O)O [Entry 4] (Hydrocinnamoyl-[NMeV]ID(NEt2)DL-OH) here?
The IC50 was 260 nM.

How did the IC50 turn out when CC[C@H](C)[C@H](NC(=O)[C@H](C(C)C)N(C)C(=O)CCc1ccccc1)C(=O)N[C@@H](CC(=O)N(C(C)C)C(C)C)C(=O)N[C@@H](CC(=O)O)C(=O)N[C@@H](CC(C)C)C(=O)O [Entry 5] (Hydrocinnamoyl-[NMeV]ID(NiPr2)DL-OH) was run?
The IC50 was 250 nM.

How did the IC50 turn out when CC[C@H](C)[C@H](NC(=O)[C@H](C(C)C)N(C)C(=O)CCc1ccccc1)C(=O)N[C@@H](CC(=O)N1CCCC1)C(=O)N[C@@H](CC(=O)O)C(=O)N[C@@H](CC(C)C)C(=O)O [Entry 6] (Hydrocinnamoyl-[NMeV]ID(Pyrrolidide)DL-OH) was run?
Its IC50 is 110 nM.

CC[C@H](C)[C@H](NC(=O)[C@H](C(C)C)N(C)C(=O)CCc1ccccc1)C(=O)N[C@@H](CC(=O)N1CCOCC1)C(=O)N[C@@H](CC(=O)O)C(=O)N[C@@H](CC(C)C)C(=O)O [Entry 7] (Hydrocinnamoyl-[NMeV]ID(Morpholide)DL-OH) was tested. Which IC50 did it give?
Its IC50 is 180 nM.

CC[C@H](C)[C@H](NC(=O)[C@H](C(C)C)N(C)C(=O)CCc1ccccc1)C(=O)N[C@@H](CC(=O)N(C)OC)C(=O)N[C@@H](CC(=O)O)C(=O)N[C@@H](CC(C)C)C(=O)O [Entry 8] (Hydrocinnamoyl-[NMeV]ID(N(Me)OMe)DL-OH) was tested. Which IC50 did it give?
The IC50 was 190 nM.

With CC[C@H](C)[C@H](NC(=O)[C@H](C(C)C)N(C)C(=O)CCc1ccc(O)cc1)C(=O)N[C@@H](CC(=O)OCCCc1ccccc1)C(=O)N[C@@H](CC(=O)O)C(=O)N[C@@H](CC(C)C)C(=O)O [Entry 9] (Desaminotyrosyl-[NMeV]ID(X3)DL-OH) as the compound, how does the IC50 read?
The IC50 was 650 nM.

With CC[C@H](C)[C@H](NC(=O)[C@H](C(C)C)N(C)C(=O)CCc1ccc(O)cc1)C(=O)N[C@@H](CC(=O)Nc1ccccc1)C(=O)N[C@@H](CC(=O)O)C(=O)N[C@@H](CC(C)C)C(=O)O [Entry 10] (Desaminotyrosyl-[NMeV]ID(NHPh)DL-OH) as the compound, how does the IC50 read?
Its IC50 is 1600 nM.

For CC[C@H](C)[C@H](NC(=O)[C@H](C(C)C)N(C)C(=O)CCc1ccc(O)cc1)C(=O)N[C@@H](CC(=O)NCCc1ccccc1)C(=O)N[C@@H](CC(=O)O)C(=O)N[C@@H](CC(C)C)C(=O)O [Entry 11] (Desaminotyrosyl-[NMeV]ID(NHPhenethyl)DL-OH), which IC50 is on record?
The IC50 was 510 nM.

CC[C@H](C)[C@H](NC(=O)[C@H](C(C)C)N(C)C(=O)CCc1ccc(O)cc1)C(=O)N[C@@H](CC(=O)N(C)C)C(=O)N[C@@H](CC(=O)O)C(=O)N[C@@H](CC(C)C)C(=O)O [Entry 12] (Desaminotyrosyl-[NMeV]ID(NMe2)DL-OH) was tested. Which IC50 did it give?
The IC50 was 90 nM.

Which IC50 does the source give for CC[C@H](C)[C@H](NC(=O)[C@H](C(C)C)N(C)C(=O)CCc1ccc(O)cc1)C(=O)N[C@@H](CC(=O)N(CC)CC)C(=O)N[C@@H](CC(=O)O)C(=O)N[C@@H](CC(C)C)C(=O)O [Entry 13, DAT-N-Me-Val-Ile-Asp(NEt₂)-Asp-Leu-OH] (Desaminotyrosyl-[NMeV]ID(NEt2)DL-OH) here?
The IC50 was 270 nM.

For CC[C@H](C)[C@H](NC(=O)[C@H](C(C)C)N(C)C(=O)CCc1ccc(O)cc1)C(=O)N[C@@H](CC(=O)N(C)CCc1ccccc1)C(=O)N[C@@H](CC(=O)O)C(=O)N[C@@H](CC(C)C)C(=O)O [Entry 14] (Desaminotyrosyl-[NMeV]ID(N(Me)CH2CH2Ph)DL-OH), which IC50 is on record?
The IC50 was 380 nM.

With CC[C@H](C)[C@H](NC(=O)[C@H](C(C)C)N(C)C(=O)CCc1ccc(O)cc1)C(=O)N[C@@H](CC(=O)N(C)CCc1ccccn1)C(=O)N[C@@H](CC(=O)O)C(=O)N[C@@H](CC(C)C)C(=O)O [Entry 15] (Desaminotyrosyl-[NMeV]ID(X8)DL-OH) as the compound, how does the IC50 read?
The IC50 was 290 nM.

CC[C@H](C)[C@H](NC(=O)[C@H](C(C)C)N(C)C(=O)CCc1ccc(O)cc1)C(=O)N[C@@H](CC(=O)N1CCOCC1)C(=O)N[C@@H](CC(=O)O)C(=O)N[C@@H](CC(C)C)C(=O)O [Entry 16] (Desaminotyrosyl-[NMeV]ID(Morpholide)DL-OH) was tested. Which IC50 did it give?
Its IC50 is 370 nM.

Which IC50 does the source give for CC[C@H](C)[C@H](NC(=O)[C@@H](NC(=O)CCc1ccc(O)cc1)C(C)C)C(=O)N[C@@H](CC(=O)NCCc1ccccc1)C(=O)N[C@@H](CC(=O)O)C(=O)N[C@@H](CC(C)C)C(=O)O [Entry 17] (Desaminotyrosyl-VID(NHPhenethyl)DL-OH) here?
The IC50 was 1700 nM.

How did the IC50 turn out when CCNC(=O)C[C@H](NC(=O)[C@@H](NC(=O)[C@@H](NC(=O)CCc1ccc(O)cc1)C(C)C)[C@@H](C)CC)C(=O)N[C@@H](CC(=O)O)C(=O)N[C@@H](CC(C)C)C(=O)O [Entry 18] (Desaminotyrosyl-VID(NHEt)DL-OH) was run?
The IC50 was 1750 nM.

How did the IC50 turn out when CC[C@H](C)[C@H](NC(=O)[C@@H](NC(=O)CCc1ccc(O)cc1)C(C)C)C(=O)N[C@@H](CC(=O)N(CC)CC)C(=O)N[C@@H](CC(=O)O)C(=O)N[C@@H](CC(C)C)C(=O)O [Entry 19] (Desaminotyrosyl-VID(NEt2)DL-OH) was run?
Its IC50 is 560 nM.

For CC[C@H](C)[C@H](NC(=O)[C@@H](NC(=O)CCc1ccc(O)cc1)C(C)C)C(=O)N[C@@H](CC(=O)N(C)CCc1ccccc1)C(=O)N[C@@H](CC(=O)O)C(=O)N[C@@H](CC(C)C)C(=O)O [Entry 20] (Desaminotyrosyl-VID(N(Me)CH2CH2Ph)DL-OH), which IC50 is on record?
The IC50 was 550 nM.

With CC[C@H](C)[C@H](NC(=O)[C@@H](NC(=O)c1ccccc1-c1ccccc1)C(C)C)C(=O)N[C@@H](CC(=O)NCCc1ccccc1)C(=O)N[C@@H](CC(=O)O)C(=O)N[C@@H](CC(C)C)C(=O)O [Entry 21, 2-Biphenylylcarbonyl-Val-Ile-Asp-(NHCH₂CH₂Ph)-Asp-Leu-OH] ({Benzoyl(2-Ph)}-VID(NHPhenethyl)DL-OH) as the compound, how does the IC50 read?
Its IC50 is 1250 nM.

With CC[C@H](C)[C@H](NC(=O)[C@@H](NC(=O)c1ccccc1)C(C)C)C(=O)N[C@@H](CC(=O)NCCc1ccccc1)C(=O)N[C@@H](CC(=O)O)C(=O)N[C@@H](CC(C)C)C(=O)O [Entry 22, Benzoyl-Val-Ile-Asp-(NHCH₂CH₂Ph)-Asp-Leu-OH] (Bz-VID(NHPhenethyl)DL-OH) as the compound, how does the IC50 read?
The IC50 was 7600 nM.

Which IC50 does the source give for CC[C@H](C)[C@H](NC(=O)[C@@H](NC(C)=O)C(C)C)C(=O)N[C@@H](CC(=O)NCCc1ccccc1)C(=O)N[C@@H](CC(=O)O)C(=O)N[C@@H](CC(C)C)C(=O)O [Entry 23, Ac-Val-Ile-Asp(NHCH₂CH₂Ph)-Asp-Leu-OH] (Ac-VID(NHPhenethyl)DL-OH) here?
Its IC50 is 18000 nM.

For CC[C@H](C)[C@H](NC(=O)[C@H](C(C)C)N(C)C(=O)CCC(C)C)C(=O)N[C@@H](CC(=O)N(CC)CC)C(=O)N[C@@H](CC(=O)O)C(=O)N[C@@H](CC(C)C)C(=O)O [Entry 25, 4-Methylpentanoyl-N-Me-Val-Ile-Asp(NEt₂)-Asp-Leu-OH] ({Pentanoyl(4-Me)}-[NMeV]ID(NEt2)DL-OH), which IC50 is on record?
The IC50 was 500 nM.

With CCN(CC)C(=O)C[C@H](NC(=O)[C@@H](NC(=O)[C@H](C(C)C)N(C)C(=O)CCc1ccccc1)[C@@H](C)O)C(=O)N[C@@H](CC(=O)O)C(=O)N[C@@H](CC(C)C)C(=O)O [Entry 26, PhCH₂CH₂CO-N-Me-Val-Thr-Asp(NEt₂)-Asp-Leu-OH] (Hydrocinnamoyl-[NMeV]TD(NEt2)DL-OH) as the compound, how does the IC50 read?
The IC50 was 300 nM.

How did the IC50 turn out when CC[C@H](C)[C@H](NC(=O)[C@H](C(C)C)N(C)C(=O)CCc1ccccc1)C(=O)N[C@@H](CC(=O)N1CCOCC1)C(=O)N[C@@H](CC(=O)O)C(=O)N[C@@H](CC(C)C)C(=O)N(CC)CC [Entry 27, PhCH₂CH₂CO-N-Me-Val-Ile-Asp(morpholino)-Asp-Leu-NEt₂] (Hydrocinnamoyl-[NMeV]ID(Morpholide)DL-NEt2) was run?
The IC50 was 2600 nM.

CC[C@H](C)[C@H](NC(=O)[C@H](C(C)C)N(C)C(=O)CCc1ccc(O)c(O)c1)C(=O)N[C@@H](CC(=O)N1CCCC1)C(=O)N[C@@H](CC(=O)O)C(=O)N[C@@H](CC(C)C)C(=O)O [Entry 28, (3,4-Dihydroxy-Ph)-CH₂CH₂CO-N-Me-Val-Ile-Asp(pyrrolidino)-Asp-Leu-OH] (Dihydrocaffeoyl-[NMeV]ID(Pyrrolidide)DL-OH) was tested. Which IC50 did it give?
The IC50 was 250 nM.
